In PMC6321019 (International Journal of Molecular Sciences, 2018):
Where a name gives a salt, the structure may show the parent alone.

What was measured:
[1] = molecular target: T1, HA-tagged Lys191 mutant of human histamine H1 receptor to alanine (HA-K191A) (Homo sapiens, UniProt P35367, K191A); experiment: [3H]mepyramine displacement binding to membranes of CHO cells expressing HA-K191A; settings: HA-K191A vs HA-WT; for reduction of affinity by mutation of Lys191 to alanine (times): 25 °C; for Change in Entropy-Dependent Hydrophobic Binding Forces by the mutation of Lys191 to alanine: -T∆Sº from van 't Hoff plots (37, 25, 14 °C); for Change in Enthalpy-Dependent Electrostatic Binding Forces by the mutation of Lys191 to alanine: ∆Hº from van 't Hoff plots (37, 25, 14 °C)
T1 construct: expressed in transfected cells; host or cells: CHO cells; membrane preparations

[2] = molecular target: T2, hemagglutinin (HA)-tagged wild-type human histamine H1 receptor (HA-WT) (Homo sapiens, UniProt P35367); experiment: [3H]mepyramine displacement binding to membranes of CHO cells expressing HA-WT; settings: van 't Hoff plots (37, 25, 14 °C); ∆Hº vs -T∆Sº
T2 construct: membrane preparations
T2 sequence (P35367 whole entry): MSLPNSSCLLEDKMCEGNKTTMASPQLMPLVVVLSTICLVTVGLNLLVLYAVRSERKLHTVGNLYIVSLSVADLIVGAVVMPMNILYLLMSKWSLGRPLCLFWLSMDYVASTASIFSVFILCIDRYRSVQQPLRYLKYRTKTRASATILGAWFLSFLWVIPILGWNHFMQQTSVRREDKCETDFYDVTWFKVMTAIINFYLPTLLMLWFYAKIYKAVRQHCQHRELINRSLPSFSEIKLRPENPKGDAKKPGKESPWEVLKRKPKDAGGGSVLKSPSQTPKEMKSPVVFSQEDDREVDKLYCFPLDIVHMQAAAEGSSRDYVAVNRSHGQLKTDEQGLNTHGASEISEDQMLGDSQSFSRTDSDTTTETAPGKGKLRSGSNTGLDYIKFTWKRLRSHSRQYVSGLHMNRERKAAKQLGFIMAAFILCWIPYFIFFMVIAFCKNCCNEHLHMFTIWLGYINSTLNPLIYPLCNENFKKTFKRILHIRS

T1 sequence (P35367 whole entry K191A): as the sequence (P35367 whole entry) above, with K191A counted along it

SMILES	reduction of affinity by mutation of Lys191 to alanine (times) [1]	Change in Binding Affinity by the mutation of Lys191 to alanine [1]	Change in Entropy-Dependent Hydrophobic Binding Forces by the mutation of Lys191 to alanine [1]	enthalpy-dependent electrostatic binding forces, change by mutation of Lys191 to alanine (in words) ([1]; van 't Hoff plots)	Change in Enthalpy-Dependent Electrostatic Binding Forces by the mutation of Lys191 to alanine [1]	thermodynamic driving force of binding (source of negative ∆Gº) to HA-WT [2]	entropy-dependent hydrophobic binding forces, change by mutation of Lys191 to alanine (in words) ([1]; van 't Hoff plots)
O=C(O)COCCN1CCN([C@@H](c2ccccc2)c2ccc(Cl)cc2)CC1 [(S)-cetirizine, (S)-cetirizine dihydrochloride]	~6.2 times	↓**	↑**	significantly reduced	↓**	predominantly achieved by enthalpy (∆Hº)	–
O=C(O)COCCN1CCN([C@H](c2ccccc2)c2ccc(Cl)cc2)CC1 [levocetirizine, Levocetirizine dihydrochloride]	approximately 3.6 times	↓**	↓*	significantly increased	↑*	caused by both enthalpy (∆Hº) and entropy (-T∆Sº)	significantly reduced
